Experimental findings from BindingDB's records for doi:10.1021/jm0701019 (Abbott Laboratories, 2007) are described below.

T1 sequence (P31749 139-480 S378A/S381A/T450D/S473D): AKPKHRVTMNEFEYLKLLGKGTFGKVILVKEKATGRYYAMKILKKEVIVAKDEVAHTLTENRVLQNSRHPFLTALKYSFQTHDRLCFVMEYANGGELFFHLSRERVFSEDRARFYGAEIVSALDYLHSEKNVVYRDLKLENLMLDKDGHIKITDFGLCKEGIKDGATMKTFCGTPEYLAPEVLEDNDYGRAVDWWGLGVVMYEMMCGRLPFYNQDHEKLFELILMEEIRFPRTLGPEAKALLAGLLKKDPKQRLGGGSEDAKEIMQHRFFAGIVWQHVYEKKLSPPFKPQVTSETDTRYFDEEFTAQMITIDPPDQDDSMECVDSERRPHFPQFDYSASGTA

One assay has as its target T1, RAC-alpha serine/threonine-protein kinase [139-480,S378A,S381A,T450D,S473D] (Homo sapiens, UniProt P31749, S378A/S381A/S473D/T450D).
T1 construct: 139-480
The assay can be described thus: Akt Kinase Assay.
Conditions: not given
The procedure: The kinase assay uses His-Akt1 and a biotinylated peptide as substrate. The biotinylated peptides were immobilized on streptavidin-coated FLASH plates. After reaction, the 33P-phosphopeptide captured on the FLASH plates was measured with a TopCount Packard Instruments […] (Packard Instruments, Boston, MA).
In turn, `Cc1n[nH]c2ccc(-c3cncc(OC[C@@H](N)Cc4ccc(Br)cc4F)c3)cc12` [5-{5-[(2S)-2-amino-3-(4-bromo-2-fluorophenyl)propoxy]pyridin-3-yl}-3-methyl-1H-indazole] displayed an IC50 of 10 nM. In other words, the double-digit nanomolar range.

In turn, `Cc1n[nH]c2ccc(-c3cncc(OC[C@@H](N)Cc4ccc(Br)c(F)c4)c3)cc12` [5-{5-[(2S)-2-amino-3-(4-bromo-3-fluorophenyl)propoxy]pyridin-3-yl}-3-methyl-1H-indazole] yielded an IC50 of 1.3 nM. Against the preceding compound, the IC50 is about 7.7-fold lower. Still for that read-out and setting: then `Cc1cc(C[C@H](N)COc2cncc(-c3ccc4[nH]nc(C)c4c3)c2)ccc1Br` [5-{5-[(2S)-2-amino-3-(4-bromo-3-methylphenyl)propoxy]pyridin-3-yl}-3-methyl-1H-indazole], with 2.5 nM; and `Cc1n[nH]c2ccc(-c3cncc(OC[C@@H](N)Cc4ccc(Cl)c(F)c4)c3)cc12` [5-{5-[(2S)-2-amino-3-(4-chloro-3-fluorophenyl)propoxy]pyridin-3-yl}-3-methyl-1H-indazole], with 3.6 nM; and `Cc1cc(F)ccc1C[C@H](N)COc1cncc(-c2ccc3[nH]nc(C)c3c2)c1` [5-{5-[(2S)-2-amino-3-(4-fluoro-2-methylphenyl)propoxy]pyridin-3-yl}-3-methyl-1H-indazole], with 6 nM. The same measure, in the same setting: then `Cc1ccc(F)cc1C[C@H](N)COc1cncc(-c2ccc3[nH]nc(C)c3c2)c1` [5-{5-[(2S)-2-amino-3-(5-fluoro-2-methylphenyl)propoxy]pyridin-3-yl}-3-methyl-1H-indazole], with 3.9 nM; and `Cc1n[nH]c2ccc(-c3cncc(OC[C@@H](N)Cc4ccccc4OC(F)(F)F)c3)cc12` [5-{5-[(2S)-2-amino-3-[2-(trifluoromethoxy)phenyl]propoxy]pyridin-3-yl}-3-methyl-1H-indazole], with 15.3 nM. Still for that read-out and setting: the result for `Cc1n[nH]c2ccc(-c3cncc(OC[C@@H](N)Cc4ccc(C(F)(F)F)cc4F)c3)cc12` [5-{5-[(2S)-2-amino-3-[2-fluoro-4-(trifluoromethyl)phenyl]propoxy]pyridin-3-yl}-3-methyl-1H-indazole] reads 12.1 nM; that for `Cc1n[nH]c2ccc(-c3cncc(OC[C@@H](N)Cc4cc(C(F)(F)F)ccc4F)c3)cc12` [5-{5-[(2S)-2-amino-3-[2-fluoro-5-(trifluoromethyl)phenyl]propoxy]pyridin-3-yl}-3-methyl-1H-indazole], 1.2 nM; that for `Cc1n[nH]c2ccc(-c3cncc(OC[C@@H](N)Cc4cc(C(F)(F)F)cc(C(F)(F)F)c4)c3)cc12` [5-{5-[(2S)-2-amino-3-[3,5-bis(trifluoromethyl)phenyl]propoxy]pyridin-3-yl}-3-methyl-1H-indazole], 57 nM. `Cc1n[nH]c2ccc(-c3cncc(OC[C@@H](N)Cc4cccc(OCCN)c4)c3)cc12` [5-{5-[(2S)-2-amino-3-[3-(2-aminoethoxy)phenyl]propoxy]pyridin-3-yl}-3-methyl-1H-indazole] came in with an IC50 of 47 nM. The IC50 values of the last two compounds are within 1.5-fold of each other.

For the compound `Cc1n[nH]c2ccc(-c3cncc(OC[C@@H](N)Cc4cccc(OCC5CCNCC5)c4)c3)cc12` [5-{5-[(2S)-2-amino-3-[3-(piperidin-4-ylmethoxy)phenyl]propoxy]pyridin-3-yl}-3-methyl-1H-indazole], the IC50 was found to be 6.8 nM.

`Cc1n[nH]c2ccc(-c3cncc(OC[C@@H](N)Cc4ccc(C(F)(F)F)c(F)c4)c3)cc12` [5-{5-[(2S)-2-amino-3-[3-fluoro-4-(trifluoromethyl)phenyl]propoxy]pyridin-3-yl}-3-methyl-1H-indazole] registered an IC50 of 3.1 nM. This IC50 lies about 2.2-fold lower than the previous one. Consider `Cc1n[nH]c2ccc(-c3cncc(OC[C@@H](N)Cc4ccc(F)c(C(F)(F)F)c4)c3)cc12` [5-{5-[(2S)-2-amino-3-[4-fluoro-3-(trifluoromethyl)phenyl]propoxy]pyridin-3-yl}-3-methyl-1H-indazole], for which inhibition was half-maximal at 1.8 nM (IC50). On the same count and under the same terms, then `Cc1n[nH]c2ccc(-c3cncc(OC[C@@H](N)Cc4cccc(OCCC5CCNCC5)c4)c3)cc12` [5-{5-[(2S)-2-amino-3-{3-[2-(piperidin-4-yl)ethoxy]phenyl}propoxy]pyridin-3-yl}-3-methyl-1H-indazole], with 290 nM. The same measure, in the same setting: the result for `Cc1n[nH]c2ccc(-c3cncc(OC[C@@H](N)Cc4cccc(OCC5CCN(C)CC5)c4)c3)cc12` [5-{5-[(2S)-2-amino-3-{3-[(1-methylpiperidin-4-yl)methoxy]phenyl}propoxy]pyridin-3-yl}-3-methyl-1H-indazole] reads 78 nM.

In the case of `Cc1n[nH]c2cnc(-c3cncc(OC[C@@H](N)Cc4cccc(F)c4F)c3)cc12` [(2S)-1-(2,3-difluorophenyl)-3-{[5-(3-methyl-1H-pyrazolo[3,4-c]pyridin-5-yl)pyridin-3-yl]oxy}propan-2-amine], the IC50 was determined as 5 nM.

For `Cc1cc(C)c(C[C@H](N)COc2cncc(-c3ccc4[nH]nc(C)c4c3)c2)c(C)c1` [(2S)-1-(2,4,6-trimethylphenyl)-3-{[5-(3-methyl-1H-indazol-5-yl)pyridin-3-yl]oxy}propan-2-amine], it took 39 nM to reach half-maximal inhibition (IC50). Still for that read-out and setting: the result for `Cc1n[nH]c2ccc(-c3cncc(OC[C@@H](N)Cc4c(F)cc(F)cc4Br)c3)cc12` [(2S)-1-(2-bromo-4,6-difluorophenyl)-3-{[5-(3-methyl-1H-indazol-5-yl)pyridin-3-yl]oxy}propan-2-amine] reads 49 nM; that for `Cc1n[nH]c2ccc(-c3cncc(OC[C@@H](N)Cc4ccccc4Br)c3)cc12` [(2S)-1-(2-bromophenyl)-3-{[5-(3-methyl-1H-indazol-5-yl)pyridin-3-yl]oxy}propan-2-amine], 23 nM; that for `Cc1n[nH]c2ccc(-c3cncc(OC[C@@H](N)Cc4ccc(Cl)c(Cl)c4)c3)cc12` [(2S)-1-(3,4-dichlorophenyl)-3-{[5-(3-methyl-1H-indazol-5-yl)pyridin-3-yl]oxy}propan-2-amine], 1.8 nM.

The compound `Cc1n[nH]c2ccc(-c3cncc(OC[C@@H](N)Cc4cc(Cl)cc(Cl)c4)c3)cc12` [(2S)-1-(3,5-dichlorophenyl)-3-{[5-(3-methyl-1H-indazol-5-yl)pyridin-3-yl]oxy}propan-2-amine] registered an IC50 of 20.7 nM. `Cc1n[nH]c2ccc(-c3cncc(OC[C@@H](N)Cc4cccc(Br)c4)c3)cc12` [(2S)-1-(3-bromophenyl)-3-{[5-(3-methyl-1H-indazol-5-yl)pyridin-3-yl]oxy}propan-2-amine] returned an IC50 of 2.1 nM.

As to `Cc1n[nH]c2ccc(-c3cncc(OC[C@@H](N)Cc4ccc(F)c(Cl)c4)c3)cc12` [(2S)-1-(3-chloro-4-fluorophenyl)-3-{[5-(3-methyl-1H-indazol-5-yl)pyridin-3-yl]oxy}propan-2-amine], the IC50 is 3.1 nM.

The compound `Cc1n[nH]c2ccc(-c3cncc(OC[C@@H](N)Cc4cccc(Cl)c4)c3)cc12` [(2S)-1-(3-chlorophenyl)-3-{[5-(3-methyl-1H-indazol-5-yl)pyridin-3-yl]oxy}propan-2-amine] had an IC50 of 5.9 nM. Still for that read-out and setting: then `Cc1cc(C[C@H](N)COc2cncc(-c3ccc4[nH]nc(C)c4c3)c2)ccc1F` [(2S)-1-(3-methyl-4-fluorophenyl)-3-{[5-(3-methyl-1H-indazol-5-yl)pyridin-3-yl]oxy}propan-2-amine], with 11 nM. On the same count and under the same terms, the result for `Cc1n[nH]c2ccc(-c3cncc(OC[C@@H](N)Cc4ccc(Cl)cc4)c3)cc12` [(2S)-1-(4-chlorophenyl)-3-{[5-(3-methyl-1H-indazol-5-yl)pyridin-3-yl]oxy}propan-2-amine] reads 11 nM; that for `COc1ccc(F)cc1C[C@H](N)COc1cncc(-c2ccc3[nH]nc(C)c3c2)c1` [(2S)-1-(5-fluoro-2-methoxyphenyl)-3-{[5-(3-methyl-1H-indazol-5-yl)pyridin-3-yl]oxy}propan-2-amine], 7.7 nM. Still for that read-out and setting: then `Cc1n[nH]c2ccc(-c3cncc(OC[C@@H](N)Cc4cc(F)cc(C(F)(F)F)c4)c3)cc12` [(2S)-1-[5-fluoro-3-(trifluoromethyl)phenyl]-3-{[5-(3-methyl-1H-indazol-5-yl)pyridin-3-yl]oxy}propan-2-amine], with 13.3 nM; and `N[C@H](COc1cncc(-c2cc3cn[nH]c3cn2)c1)Cc1cccc(C(F)(F)F)c1` [(2S)-1-{[5-(1H-pyrazolo[3,4-c]pyridin-5-yl)pyridin-3-yl]oxy}-3-[3-(trifluoromethyl)phenyl]propan-2-amine], with 7.2 nM.

Compound `N[C@H](COc1cncc(-c2cc3c(Cl)n[nH]c3cn2)c1)Cc1cccc(C(F)(F)F)c1` [(2S)-1-{[5-(3-chloro-1H-pyrazolo[3,4-c]pyridin-5-yl)pyridin-3-yl]oxy}-3-[3-(trifluoromethyl)phenyl]propan-2-amine] yielded an IC50 of 2.9 nM.

`Cc1n[nH]c2ccc(-c3cncc(OC[C@@H](N)Cc4cccc(C(F)(F)F)c4)c3)cc12` [(2S)-1-{[5-(3-methyl-1H-indazol-5-yl)pyridin-3-yl]oxy}-3-[3-(trifluoromethyl)phenyl]propan-2-amine]: 1.2 nM corresponded to half-maximal inhibition (IC50).

Turning to `Cc1n[nH]c2ccc(-c3cncc(OC[C@@H](N)Cc4ccc(OC(F)(F)F)cc4)c3)cc12` [(2S)-1-{[5-(3-methyl-1H-indazol-5-yl)pyridin-3-yl]oxy}-3-[4-(trifluoromethoxy)phenyl]propan-2-amine], the IC50 came to 20.3 nM. On the same count and under the same terms, then `Cc1n[nH]c2ccc(-c3cncc(OC[C@@H](N)Cc4ccc(C(F)(F)F)cc4)c3)cc12` [(2S)-1-{[5-(3-methyl-1H-indazol-5-yl)pyridin-3-yl]oxy}-3-[4-(trifluoromethyl)phenyl]propan-2-amine], with 18 nM.

The assay is the same for the next values; noted with them: pH 7.5; 22 °C.
In the case of `Cc1n[nH]c2ccc(-c3cncc(OC[C@@H](N)Cc4c(F)cc(F)cc4F)c3)cc12` [(2S)-1-(2,4,6-trifluorophenyl)-3-{[5-(3-methyl-1H-indazol-5-yl)pyridin-3-yl]oxy}propan-2-amine], half-maximal inhibition (IC50) was put at 31 nM.

`Cc1n[nH]c2ccc(-c3cncc(OC[C@@H](N)Cc4ccc(F)cc4F)c3)cc12` [(2S)-1-(2,4-difluorophenyl)-3-{[5-(3-methyl-1H-indazol-5-yl)pyridin-3-yl]oxy}propan-2-amine] returned an IC50 of 21 nM. The IC50 values of the last two compounds are within 1.5-fold of each other.

A word on the IC50: it is the concentration that gives 50% inhibition. Low readings indicate inhibition by little substance, high ones a need for much substance.
